# Assay results from ChEMBL document CHEMBL4402548, “Discovery of novel tRNA-amino acid dual-site inhibitors against threonyl-tRNA synthetase by fragment-based target hopping” (Eur J Med Chem, 2020).
# Assays:
# Salmonella enterica [1] = experiment: Binding affinity to Salmonella enterica Threonyl-tRNA synthetase assessed as change in melting temperature at 0.5 mM incubated for 10 mins by SYPRO orange dye-based thermal shift assay
# Salmonella enterica [2] = experiment: Inhibition of Salmonella enterica Threonyl-tRNA synthetase assessed as reduction in aminoacylation activity at 100 uM using L-threonine as substrate incubated for 3 hrs by Kinase-glo luminescence assay relative to control
# [3] = Inhibition of Salmonella enterica Threonyl-tRNA synthetase assessed as reduction in aminoacylation activity using L-threonine as substrate in presence of incubated for 3 hrs by Kinase-glo luminescence assay
# Enterococcus faecalis = experiment: Antibacterial activity against Enterococcus faecalis ATCC 29212 by visual method; format: functional
# Staphylococcus aureus [4] = experiment: Antibacterial activity against Staphylococcus aureus ATCC 29213 by visual method; format: functional
# Staphylococcus aureus [5] = experiment: Antibacterial activity against methicillin-resistant Staphylococcus aureus R3708 by visual method; format: functional
# Escherichia coli = experiment: Antibacterial activity against Escherichia coli ATCC 25922 by visual method; format: functional
# Salmonella enterica [6] = experiment: Antibacterial activity against Salmonella enterica 87 by visual method; format: functional
# Pseudomonas aeruginosa = experiment: Antibacterial activity against Pseudomonas aeruginosa ATCC 27853 by visual method; format: functional
# [7] = Binding affinity to Salmonella enterica Threonyl-tRNA synthetase at 200 uM by isothermal titration calorimetry
Structure (SMILES),ΔTm (Salmonella enterica [1]),inhibition (Salmonella enterica [2]),IC50 [3],other results
C[C@@H](O)[C@H](N)C(=O)OCCCCCn1cnc2cc(Br)c(Cl)cc2c1=O,9.8 °C,30%,,
C[C@@H](O)[C@H](N)C(=O)NC/C=C/Cn1cnc2cc(Cl)c([N+](=O)[O-])cc2c1=O,0.5 °C,0%,,
C[C@@H](O)[C@H](N)C(=O)N1CCC(Cn2cnc3cc(Br)c(Cl)cc3c2=O)CC1,12.4 °C,23%,,
C[C@@H](O)[C@H](N)C(=O)NC/C=C/Cn1cnc2cnc(F)cc2c1=O,12 °C,36%,,
C[C@@H](O)[C@H](N)C(=O)NC/C=C/Cn1cnc2cc(C(F)(F)F)ccc2c1=O,11.9 °C,21%,,
C[C@@H](O)[C@H](N)C(=O)NC/C=C/Cn1cnc2cc3c(cc2c1=O)OCCO3,0.6 °C,0%,,
C[C@@H](O)[C@H](N)C(=O)NCCCCCCn1cnc2cc(Br)c(Cl)cc2c1=O,12.4 °C,96%,7.3 µM,
CN[C@H](CC(C)C)C(=O)N[C@H]1C(=O)N[C@@H](CC(N)=O)C(=O)N[C@H]2C(=O)N[C@H]3C(=O)N[C@H](C(=O)N[C@H](C(=O)O)c4cc(O)cc(O)c4-c4cc3ccc4O)[C@H](O)c3ccc(c(Cl)c3)Oc3cc2cc(c3O[C@@H]2O[C@H](CO)[C@@H](O)[C@H](O)[C@H]2O[C@H]2C[C@](C)(N)[C@H](O)[C@H](C)O2)Oc2ccc(cc2Cl)[C@H]1O [VANCOMYCIN],,,,MIC (Enterococcus faecalis): 2 µg/mL
C[C@@H](O)[C@H](N)C(=O)NS(=O)(=O)c1cccc(-c2ccc3[nH]ncc3c2)c1,29.5 °C,100%,0.13 µM,MIC (Staphylococcus aureus [4]): > 256 µg/mL; MIC (Staphylococcus aureus [5]): > 256 µg/mL; MIC (Enterococcus faecalis): > 256 µg/mL; MIC (Escherichia coli): > 256 µg/mL; MIC (Salmonella enterica [6]): > 256 µg/mL; MIC (Pseudomonas aeruginosa): > 256 µg/mL
C[C@@H](O)[C@H](N)C(=O)NC/C=C/Cn1cnc2cc3ccccc3cc2c1=O,16.9 °C,70%,55.5 µM,
COc1cc2c(=O)n(C/C=C/CNC(=O)[C@@H](N)[C@@H](C)O)cnc2cn1,9.6 °C,17%,,
C[C@@H](O)[C@H](N)C(=O)NC/C=C/Cn1cnc2ccccc2c1=O,9.2 °C,15%,,
C[C@@H](O)[C@H](N)C(=O)NC/C=C/Cn1cnc2cc(Cl)c(F)cc2c1=O,18.8 °C,93%,9.7 µM,
CC1(C)S[C@@H]2[C@H](NC(=O)[C@H](N)c3ccccc3)C(=O)N2[C@H]1C(=O)O [AMPICILLIN],,,,MIC (Escherichia coli): 1 µg/mL; MIC (Salmonella enterica [6]): 1 µg/mL; MIC (Pseudomonas aeruginosa): 1 µg/mL
C[C@@H](O)[C@H](N)C(=O)NC/C=C/Cn1cnc2cnc(Cl)cc2c1=O,14.9 °C,68%,49.7 µM,
C[C@@H](O)[C@H](N)C(=O)N1CCC(C(=O)Cn2cnc3cc(Br)c(Cl)cc3c2=O)CC1,0 °C,0%,,
C[C@@H](O)[C@H](N)C(=O)OCCCCCCn1cnc2cc(Br)c(Cl)cc2c1=O,9.9 °C,32%,,
C[C@@H](O)[C@H](N)C(=O)NC/C=C/Cn1cnc2cc(F)c(F)cc2c1=O,17.2 °C,77%,39.4 µM,
Cc1cc2ncn(C/C=C/CNC(=O)[C@@H](N)[C@@H](C)O)c(=O)c2cc1C,10.6 °C,7%,,
C[C@@H](O)[C@H](N)C(=O)NC/C=C/Cn1cnc2cc(Br)c(Cl)cc2c1=O,22.5 °C,99%,3.2 µM,MIC (Staphylococcus aureus [4]): 32 µg/mL; MIC (Staphylococcus aureus [5]): 64 µg/mL; MIC (Enterococcus faecalis): 64 µg/mL; MIC (Escherichia coli): 32 µg/mL; MIC (Salmonella enterica [6]): 16 µg/mL; MIC (Pseudomonas aeruginosa): 32 µg/mL
C[C@@H](O)[C@H](N)C(=O)NC/C=C/Cn1cnc2cc(Cl)ncc2c1=O,8.6 °C,34%,,
C[C@@H](O)[C@H](N)C(=O)OC/C=C/Cn1cnc2cc(Br)c(Cl)cc2c1=O,15.7 °C,96%,9.6 µM,
C[C@@H](O)[C@H](N)C(=O)OCCCn1cnc2cc(Br)c(Cl)cc2c1=O,7.5 °C,0%,,
C[C@@H](O)[C@H](N)C(=O)NCCCCCn1cnc2cc(Br)c(Cl)cc2c1=O,14 °C,87%,29.7 µM,
O=C(CC1NCCCC1O)Cn1cnc2cc(Br)c(Cl)cc2c1=O (stereo unspecified) [HALOFUGINONE],-1.4 °C,5%,,MIC (Staphylococcus aureus [4]): 64 µg/mL; MIC (Staphylococcus aureus [5]): 64 µg/mL; MIC (Enterococcus faecalis): 128 µg/mL; MIC (Escherichia coli): 64 µg/mL; MIC (Salmonella enterica [6]): 64 µg/mL; MIC (Pseudomonas aeruginosa): 64 µg/mL
C[C@@H](O)[C@H](N)C(=O)OCCCCn1cnc2cc(Br)c(Cl)cc2c1=O,10.2 °C,42%,,
C[C@@H](O)[C@H](N)C(=O)NC/C=C/Cn1cnc2cc3c(cc2c1=O)OCO3,9.5 °C,5%,,
C[C@@H](O)[C@H](N)C(=O)NC/C=C/Cn1cnc2cc(Br)c(Br)cc2c1=O,20.3 °C,100%,2.4 µM,
C[C@@H](O)[C@H](N)C(=O)NC/C=C/Cn1cnc2cc(Cl)c(Cl)cc2c1=O,23.7 °C,101%,1.4 µM,Kd [7]: 1.36 µM; MIC (Staphylococcus aureus [4]): 32 µg/mL; MIC (Staphylococcus aureus [5]): 32 µg/mL; MIC (Enterococcus faecalis): 32 µg/mL; MIC (Escherichia coli): 16 µg/mL; MIC (Salmonella enterica [6]): 16 µg/mL; MIC (Pseudomonas aeruginosa): 32 µg/mL
COc1cc2ncn(C/C=C/CNC(=O)[C@@H](N)[C@@H](C)O)c(=O)c2cc1OC,1.5 °C,0%,,
